# Data reported in publication PMC10239507, “Development of allosteric and selective CDK2 inhibitors for contraception with negative cooperativity to cyclin binding” (Nature Communications, 2023).
# Assays:
# Test in all cases: biochemical
# [1] = biological target: T1, 371 kinases (kinase named in each endpoint) (Homo sapiens, UniProt O00506); settings: STK25/YSK1
# T1 construct: purchased Reaction Biology
# [2] = biological target: T2, 371 kinases (kinase named in each endpoint) (Homo sapiens, UniProt O15111); settings: IKKA/CHUK
# T2 construct: purchased Reaction Biology
# [3] = biological target: T3, 371 kinases (kinase named in each endpoint) (Homo sapiens, UniProt O60307); settings: MAST3
# T3 construct: purchased Reaction Biology
# [4] = biological target: T4, 371 kinases (kinase named in each endpoint) (Homo sapiens, UniProt O75116); settings: ROCK2
# T4 construct: purchased Reaction Biology
# [5] = biological target: T5, 371 kinases (kinase named in each endpoint) (Homo sapiens, UniProt O75914); settings: PAK3
# T5 construct: purchased Reaction Biology
# [6] = biological target: T6, 371 kinases (kinase named in each endpoint) (Homo sapiens, UniProt O94806); settings: PKCNU/PRKD3
# T6 construct: purchased Reaction Biology
# [7] = biological target: T7, 371 kinases (kinase named in each endpoint) (Homo sapiens, UniProt P04049); settings: RAF1
# T7 construct: purchased Reaction Biology
# [8] = biological target: T8, 371 kinases (kinase named in each endpoint) (Homo sapiens, UniProt P06213); settings: IR
# T8 construct: purchased Reaction Biology
# [9] = biological target: T9, 371 kinases (kinase named in each endpoint) (Homo sapiens, UniProt P07332); settings: FES/FPS
# T9 construct: purchased Reaction Biology
# [10] = biological target: T10, 371 kinases (kinase named in each endpoint) (Homo sapiens, UniProt P10398); settings: ARAF
# T10 construct: purchased Reaction Biology
# [11] = biological target: T11, 371 kinases (kinase named in each endpoint) (Homo sapiens, UniProt P23443); settings: P70S6K/RPS6KB1
# T11 construct: purchased Reaction Biology
# [12] = biological target: T12, 371 kinases (kinase named in each endpoint) (Homo sapiens, UniProt P29376); settings: TYK1/LTK
# T12 construct: purchased Reaction Biology
# [13] = biological target: T13, 371 kinases (kinase named in each endpoint) (Homo sapiens, UniProt P36897); settings: ALK5/TGFBR1
# T13 construct: purchased Reaction Biology
# [14] = biological target: T14, 371 kinases (kinase named in each endpoint) (Homo sapiens, UniProt P42679); settings: CTK/MATK
# T14 construct: purchased Reaction Biology
# [15] = biological target: T15, 371 kinases (kinase named in each endpoint) (Homo sapiens, UniProt P45983); settings: JNK1
# T15 construct: purchased Reaction Biology
# [16] = biological target: T16, 371 kinases (kinase named in each endpoint) (Homo sapiens, UniProt P45985); settings: MKK4
# T16 construct: purchased Reaction Biology
# [17] = biological target: T17, 371 kinases (kinase named in each endpoint) (Homo sapiens, UniProt P51955); settings: NEK2
# T17 construct: purchased Reaction Biology
# [18] = biological target: T18, 371 kinases (kinase named in each endpoint) (Homo sapiens, UniProt P52333); settings: JAK3
# T18 construct: purchased Reaction Biology
# [19] = biological target: T19, 371 kinases (kinase named in each endpoint) (Homo sapiens, UniProt P53778); settings: P38G
# T19 construct: purchased Reaction Biology
# [20] = biological target: T20, 371 kinases (kinase named in each endpoint) (Homo sapiens, UniProt Q09013); settings: DMPK
# T20 construct: purchased Reaction Biology
# [21] = biological target: T21, 371 kinases (kinase named in each endpoint) (Homo sapiens, UniProt Q12866); settings: C-MER
# T21 construct: purchased Reaction Biology
# [22] = biological target: T22, 371 kinases (kinase named in each endpoint) (Homo sapiens, UniProt Q13976); settings: PKG1A
# T22 construct: purchased Reaction Biology
# [23] = biological target: T23, 371 kinases (kinase named in each endpoint) (Homo sapiens, UniProt Q15303); settings: ERBB4/HER4
# T23 construct: purchased Reaction Biology
# [24] = biological target: T24, 371 kinases (kinase named in each endpoint) (Homo sapiens, UniProt Q16288); settings: TRKC
# T24 construct: purchased Reaction Biology
# [25] = biological target: T25, 371 kinases (kinase named in each endpoint) (Homo sapiens, UniProt Q5TCY1); settings: TTBK1
# T25 construct: purchased Reaction Biology
# [26] = biological target: T26, 371 kinases (kinase named in each endpoint) (Homo sapiens, UniProt Q6DT37); settings: DMPK2
# T26 construct: purchased Reaction Biology
# [27] = biological target: T27, 371 kinases (kinase named in each endpoint) (Homo sapiens, UniProt Q6IQ55); settings: TTBK2
# T27 construct: purchased Reaction Biology
# [28] = biological target: T28, 371 kinases (kinase named in each endpoint) (Homo sapiens, UniProt Q6P2M8); settings: CAMK1B
# T28 construct: purchased Reaction Biology
# [29] = biological target: T29, 371 kinases (kinase named in each endpoint) (Homo sapiens, UniProt Q8IVT5); settings: KSR1
# T29 construct: purchased Reaction Biology
# [30] = biological target: T30, 371 kinases (kinase named in each endpoint) (Homo sapiens, UniProt Q8IYT8); settings: ULK2
# T30 construct: purchased Reaction Biology
# [31] = biological target: T31, 371 kinases (kinase named in each endpoint) (Homo sapiens, UniProt Q8NEV4); settings: MYO3A
# T31 construct: purchased Reaction Biology
# [32] = biological target: T32, 371 kinases (kinase named in each endpoint) (Homo sapiens, UniProt Q96GD4); settings: AURORA B
# T32 construct: purchased Reaction Biology
# [33] = biological target: T33, 371 kinases (kinase named in each endpoint) (Homo sapiens, UniProt Q96L34); settings: MARK4
# T33 construct: purchased Reaction Biology
# [34] = biological target: T34, 371 kinases (kinase named in each endpoint) (Homo sapiens, UniProt Q9BYT3); settings: STK33
# T34 construct: purchased Reaction Biology
# [35] = biological target: T35, 371 kinases (kinase named in each endpoint) (Homo sapiens, UniProt Q9H2G2); settings: SLK/STK2
# T35 construct: purchased Reaction Biology
# [36] = biological target: T36, 371 kinases (kinase named in each endpoint) (Homo sapiens, UniProt Q9NRM7); settings: LATS2
# T36 construct: purchased Reaction Biology
# [37] = biological target: T37, 371 kinases (kinase named in each endpoint) (Homo sapiens, UniProt Q9NYY3); settings: PLK2
# T37 construct: purchased Reaction Biology
# T15 sequence (P45983 whole entry): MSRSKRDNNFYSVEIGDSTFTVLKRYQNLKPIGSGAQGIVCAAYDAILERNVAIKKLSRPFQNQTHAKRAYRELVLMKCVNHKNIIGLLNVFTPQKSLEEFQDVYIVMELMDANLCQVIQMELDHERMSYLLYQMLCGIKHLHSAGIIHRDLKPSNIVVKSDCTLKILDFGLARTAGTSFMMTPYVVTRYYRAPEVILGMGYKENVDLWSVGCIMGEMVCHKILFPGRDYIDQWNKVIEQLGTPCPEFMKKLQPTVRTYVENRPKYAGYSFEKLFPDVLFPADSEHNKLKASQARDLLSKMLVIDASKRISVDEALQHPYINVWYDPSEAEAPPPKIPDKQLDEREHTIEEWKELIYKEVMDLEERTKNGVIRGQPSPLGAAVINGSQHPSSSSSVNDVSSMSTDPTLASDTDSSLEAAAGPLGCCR
# T36 sequence (Q9NRM7 whole entry): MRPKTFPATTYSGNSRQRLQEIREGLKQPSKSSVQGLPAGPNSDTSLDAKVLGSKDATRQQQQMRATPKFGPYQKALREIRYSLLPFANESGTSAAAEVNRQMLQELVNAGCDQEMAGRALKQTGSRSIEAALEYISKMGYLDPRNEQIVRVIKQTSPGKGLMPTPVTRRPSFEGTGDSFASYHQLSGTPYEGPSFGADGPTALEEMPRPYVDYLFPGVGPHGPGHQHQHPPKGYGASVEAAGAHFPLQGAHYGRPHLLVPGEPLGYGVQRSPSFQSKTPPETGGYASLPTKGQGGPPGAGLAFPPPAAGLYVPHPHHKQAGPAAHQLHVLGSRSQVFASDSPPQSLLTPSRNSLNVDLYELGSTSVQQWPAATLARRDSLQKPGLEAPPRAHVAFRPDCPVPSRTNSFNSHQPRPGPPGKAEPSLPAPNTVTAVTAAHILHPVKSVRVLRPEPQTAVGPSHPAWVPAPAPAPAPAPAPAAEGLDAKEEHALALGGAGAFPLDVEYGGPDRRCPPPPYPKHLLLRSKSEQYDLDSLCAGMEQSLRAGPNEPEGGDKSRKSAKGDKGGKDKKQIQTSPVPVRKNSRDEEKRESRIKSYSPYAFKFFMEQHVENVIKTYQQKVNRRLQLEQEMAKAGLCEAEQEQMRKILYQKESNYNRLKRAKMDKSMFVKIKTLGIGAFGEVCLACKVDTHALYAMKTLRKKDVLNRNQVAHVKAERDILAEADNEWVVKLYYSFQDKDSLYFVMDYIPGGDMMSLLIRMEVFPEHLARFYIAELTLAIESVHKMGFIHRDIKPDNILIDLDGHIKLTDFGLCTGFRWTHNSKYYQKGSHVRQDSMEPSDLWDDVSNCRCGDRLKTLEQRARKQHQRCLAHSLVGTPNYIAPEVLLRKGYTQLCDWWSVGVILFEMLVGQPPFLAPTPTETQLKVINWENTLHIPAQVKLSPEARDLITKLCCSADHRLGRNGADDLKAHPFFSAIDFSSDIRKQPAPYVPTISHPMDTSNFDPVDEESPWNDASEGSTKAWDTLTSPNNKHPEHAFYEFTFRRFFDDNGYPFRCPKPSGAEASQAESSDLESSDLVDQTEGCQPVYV
# T10 sequence (P10398 whole entry): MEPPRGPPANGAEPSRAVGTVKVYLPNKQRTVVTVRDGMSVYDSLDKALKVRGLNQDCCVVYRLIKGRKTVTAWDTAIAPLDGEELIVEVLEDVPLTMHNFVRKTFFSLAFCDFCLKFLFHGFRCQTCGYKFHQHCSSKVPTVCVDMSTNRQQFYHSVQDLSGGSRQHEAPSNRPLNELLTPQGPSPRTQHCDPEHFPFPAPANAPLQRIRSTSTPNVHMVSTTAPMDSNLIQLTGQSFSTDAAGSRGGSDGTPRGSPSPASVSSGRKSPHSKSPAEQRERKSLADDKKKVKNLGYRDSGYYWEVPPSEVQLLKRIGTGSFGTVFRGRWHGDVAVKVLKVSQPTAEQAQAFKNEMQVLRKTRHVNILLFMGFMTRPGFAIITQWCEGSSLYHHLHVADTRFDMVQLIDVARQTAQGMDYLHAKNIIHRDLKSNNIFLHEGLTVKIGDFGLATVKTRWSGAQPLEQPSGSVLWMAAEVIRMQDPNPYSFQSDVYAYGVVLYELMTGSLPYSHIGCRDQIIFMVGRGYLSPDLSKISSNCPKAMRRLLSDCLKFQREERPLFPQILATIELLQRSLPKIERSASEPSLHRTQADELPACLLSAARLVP
# T16 sequence (P45985 whole entry): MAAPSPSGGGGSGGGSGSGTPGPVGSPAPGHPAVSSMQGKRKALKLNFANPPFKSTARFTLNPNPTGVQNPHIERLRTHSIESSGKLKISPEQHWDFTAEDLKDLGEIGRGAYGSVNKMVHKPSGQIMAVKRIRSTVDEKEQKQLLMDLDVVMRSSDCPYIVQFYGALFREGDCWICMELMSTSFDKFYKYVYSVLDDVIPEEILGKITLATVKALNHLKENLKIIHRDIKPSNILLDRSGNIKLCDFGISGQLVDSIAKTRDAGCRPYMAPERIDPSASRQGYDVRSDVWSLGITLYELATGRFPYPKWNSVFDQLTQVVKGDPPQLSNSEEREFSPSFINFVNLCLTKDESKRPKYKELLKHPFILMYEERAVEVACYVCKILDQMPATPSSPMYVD
# T24 sequence (Q16288 32-839): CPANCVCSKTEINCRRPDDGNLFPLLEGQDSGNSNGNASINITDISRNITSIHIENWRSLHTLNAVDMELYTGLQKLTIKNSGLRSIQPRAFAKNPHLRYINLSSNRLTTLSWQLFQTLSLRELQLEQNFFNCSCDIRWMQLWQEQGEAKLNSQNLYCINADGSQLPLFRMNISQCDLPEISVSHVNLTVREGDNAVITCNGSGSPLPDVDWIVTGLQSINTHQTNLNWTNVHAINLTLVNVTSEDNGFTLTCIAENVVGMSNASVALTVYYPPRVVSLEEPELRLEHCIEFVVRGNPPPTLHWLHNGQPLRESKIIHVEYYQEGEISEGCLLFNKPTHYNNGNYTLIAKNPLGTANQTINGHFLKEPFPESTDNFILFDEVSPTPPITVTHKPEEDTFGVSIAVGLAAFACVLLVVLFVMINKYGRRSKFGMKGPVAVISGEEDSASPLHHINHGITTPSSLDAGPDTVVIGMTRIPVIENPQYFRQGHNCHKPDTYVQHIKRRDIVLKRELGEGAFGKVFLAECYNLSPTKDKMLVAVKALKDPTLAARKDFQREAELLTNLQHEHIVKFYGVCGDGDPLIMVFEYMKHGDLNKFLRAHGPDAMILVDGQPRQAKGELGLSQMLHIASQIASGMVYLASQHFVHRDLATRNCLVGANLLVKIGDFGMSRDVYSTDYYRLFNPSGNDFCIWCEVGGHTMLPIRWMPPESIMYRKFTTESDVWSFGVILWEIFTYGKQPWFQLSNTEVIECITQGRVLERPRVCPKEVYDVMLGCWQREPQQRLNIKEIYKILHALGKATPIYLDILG
# T3 sequence (O60307 whole entry): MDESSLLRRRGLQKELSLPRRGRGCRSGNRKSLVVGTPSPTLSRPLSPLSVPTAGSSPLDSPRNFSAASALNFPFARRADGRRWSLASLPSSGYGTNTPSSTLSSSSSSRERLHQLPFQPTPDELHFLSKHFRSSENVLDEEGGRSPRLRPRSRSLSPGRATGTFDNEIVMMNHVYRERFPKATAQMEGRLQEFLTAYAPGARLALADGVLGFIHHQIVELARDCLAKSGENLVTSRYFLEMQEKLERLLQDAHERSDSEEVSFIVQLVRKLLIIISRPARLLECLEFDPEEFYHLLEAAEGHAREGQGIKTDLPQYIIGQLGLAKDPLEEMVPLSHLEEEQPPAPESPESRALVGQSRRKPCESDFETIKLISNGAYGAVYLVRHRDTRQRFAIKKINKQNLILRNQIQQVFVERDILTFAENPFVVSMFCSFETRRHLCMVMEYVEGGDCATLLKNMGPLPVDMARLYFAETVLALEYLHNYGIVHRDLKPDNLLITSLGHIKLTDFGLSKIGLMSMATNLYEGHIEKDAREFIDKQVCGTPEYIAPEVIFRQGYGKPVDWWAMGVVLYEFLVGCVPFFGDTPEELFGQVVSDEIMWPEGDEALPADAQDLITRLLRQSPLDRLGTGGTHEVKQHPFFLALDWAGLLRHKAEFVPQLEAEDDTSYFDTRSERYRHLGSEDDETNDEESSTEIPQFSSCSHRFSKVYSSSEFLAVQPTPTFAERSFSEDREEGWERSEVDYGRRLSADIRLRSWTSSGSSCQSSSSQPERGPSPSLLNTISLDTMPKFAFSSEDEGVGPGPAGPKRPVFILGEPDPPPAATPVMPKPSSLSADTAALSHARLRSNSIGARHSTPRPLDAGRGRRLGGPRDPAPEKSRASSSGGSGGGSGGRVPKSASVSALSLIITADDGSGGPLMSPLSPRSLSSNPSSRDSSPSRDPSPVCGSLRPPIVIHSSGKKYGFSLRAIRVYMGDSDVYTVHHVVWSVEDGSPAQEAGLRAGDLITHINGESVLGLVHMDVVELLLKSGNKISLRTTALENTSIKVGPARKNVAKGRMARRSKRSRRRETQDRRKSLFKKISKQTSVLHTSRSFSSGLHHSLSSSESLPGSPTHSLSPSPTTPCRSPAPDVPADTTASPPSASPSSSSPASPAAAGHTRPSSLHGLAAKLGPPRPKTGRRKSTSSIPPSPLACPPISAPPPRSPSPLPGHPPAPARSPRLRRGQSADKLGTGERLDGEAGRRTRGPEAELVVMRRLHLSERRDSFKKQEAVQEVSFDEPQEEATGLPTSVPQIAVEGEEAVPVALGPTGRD
# T28 sequence (Q6P2M8 whole entry): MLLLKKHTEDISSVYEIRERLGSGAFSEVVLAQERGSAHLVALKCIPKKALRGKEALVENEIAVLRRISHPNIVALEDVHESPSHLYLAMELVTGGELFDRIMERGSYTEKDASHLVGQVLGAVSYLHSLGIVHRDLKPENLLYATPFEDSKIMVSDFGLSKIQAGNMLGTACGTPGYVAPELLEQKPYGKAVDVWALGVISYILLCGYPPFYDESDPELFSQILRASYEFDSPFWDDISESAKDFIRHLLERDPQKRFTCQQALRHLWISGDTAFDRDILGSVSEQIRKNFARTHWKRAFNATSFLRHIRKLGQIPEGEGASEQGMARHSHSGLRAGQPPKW
compound,measurement,setting,value
"O=C(O)c1cc(C(F)(F)F)ccc1NCCc1c[nH]c2cc(Br)ccc12 [Compound 5, 2-((2-(6-Bromo-1H-indol-3-yl)ethyl)amino)−5-(trifluoromethyl)benzoic Acid]",activity at 10 µM,[1],124 ± 1.4%
same,activity at 10 µM,[2],83.2 ± 1.4%
same,activity at 10 µM,[3],94.9 ± 0.2%
same,activity at 10 µM,[4],90 ± 2%
same,activity at 10 µM,[5],84 ± 0.9%
same,activity at 10 µM,[6],139 ± 7.1%
same,activity at 10 µM,[7],97.8 ± 0.2%
same,activity at 10 µM,[8],64.7 ± 1.1%
same,activity at 10 µM,[9],96.5 ± 1.8%
same,activity at 10 µM,[10],91.1 ± 0.8%
same,activity at 10 µM,[11],85.4 ± 0.7%
same,activity at 10 µM,[12],86.2 ± 1.1%
same,activity at 10 µM,[13],84.2 ± 0.1%
same,activity at 10 µM,[14],71.1 ± 3.8%
same,activity at 10 µM,[15],88.4 ± 1.1%
same,activity at 10 µM,[16],115 ± 4.5%
same,activity at 10 µM,[17],50.8 ± 1.3%
same,activity at 10 µM,[18],94.7 ± 0.1%
same,activity at 10 µM,[19],107 ± 1.5%
same,activity at 10 µM,[20],108.2 ± 0.2%
same,activity at 10 µM,[21],52.1 ± 1.5%
same,activity at 10 µM,[22],101 ± 1.8%
same,activity at 10 µM,[23],96.2 ± 1%
same,activity at 10 µM,[24],91 ± 0.5%
same,activity at 10 µM,[25],103 ± 3.1%
same,activity at 10 µM,[26],96.2 ± 1.7%
same,activity at 10 µM,[27],105 ± 1.1%
same,activity at 10 µM,[28],59.1 ± 0.7%
same,activity at 10 µM,[29],92.9 ± 2.5%
same,activity at 10 µM,[30],102.4 ± 0.4%
same,activity at 10 µM,[31],118 ± 3.4%
same,activity at 10 µM,[32],34.9 ± 0.5%
same,activity at 10 µM,[33],69.6 ± 1.3%
same,activity at 10 µM,[34],85.1 ± 4.1%
same,activity at 10 µM,[35],89.7 ± 3%
same,activity at 10 µM,[36],79.1 ± 1.6%
same,activity at 10 µM,[37],67.4 ± 0.7%
